# Assay results as given in ChEMBL document CHEMBL3124787, “Discovery of novel bis-oxazolidinone compounds as potential potent and selective antitubercular agents” (Bioorg Med Chem Lett, 2014).
# Key:
# Format in all cases: functional
# [1] = test system: Mycobacterium tuberculosis; test: Ratio of MIC for compound to linezolid for extensive drug-resistant Mycobacterium tuberculosis
# [2] = test system: Mycobacterium tuberculosis; test: Ratio of MIC for compound to linezolid for multidrug-resistant Mycobacterium tuberculosis
# [3] = test system: Mycobacterium tuberculosis; test: Antitubercular activity against extensive drug-resistant Mycobacterium tuberculosis clinical isolate 7 assessed as growth inhibition by microdilution method
# [4] = test system: Mycobacterium tuberculosis; test: Antitubercular activity against extensive drug-resistant Mycobacterium tuberculosis clinical isolate 6 assessed as growth inhibition by microdilution method
# [5] = test system: Mycobacterium tuberculosis; test: Antitubercular activity against extensive drug-resistant Mycobacterium tuberculosis clinical isolate 5 assessed as growth inhibition by microdilution method
# [6] = test system: Mycobacterium tuberculosis; test: Antitubercular activity against extensive drug-resistant Mycobacterium tuberculosis clinical isolate 4 assessed as growth inhibition by microdilution method
# [7] = test system: Mycobacterium tuberculosis; test: Antitubercular activity against multidrug-resistant Mycobacterium tuberculosis clinical isolate 3 assessed as growth inhibition by microdilution method
# [8] = test system: Mycobacterium tuberculosis; test: Antitubercular activity against multidrug-resistant Mycobacterium tuberculosis clinical isolate 2 assessed as growth inhibition by microdilution method
# [9] = test system: Mycobacterium tuberculosis; test: Antitubercular activity against isoniazid-resistant Mycobacterium tuberculosis H37RV clinical isolate 1 assessed as growth inhibition by microdilution method; conditions: H37Rv isolate 1
smiles,measurement,setting,value
CC(=O)NC[C@H]1CN(c2ccc(OC[C@@H]3CN(c4ccccc4)C(=O)O3)c(F)c2)C(=O)O1,Ratio,[1],>20
same,Ratio,[2],>20
same,MIC,[3],8 µg/mL
same,MIC,[4],2 µg/mL
same,MIC,[5],4 µg/mL
same,MIC,[6],4 µg/mL
same,MIC,[7],4 µg/mL
same,MIC,[8],4 µg/mL
same,MIC,[9],8 µg/mL
COc1ccc(N2C[C@@H](COc3ccc(N4C[C@H](CNC(C)=O)OC4=O)cc3F)OC2=O)cc1,Ratio,[1],>20
same,Ratio,[2],>20
same,MIC,[3],8 µg/mL
same,MIC,[4],2 µg/mL
same,MIC,[5],4 µg/mL
same,MIC,[6],4 µg/mL
same,MIC,[7],4 µg/mL
same,MIC,[8],4 µg/mL
same,MIC,[9],4 µg/mL
NNC(=O)c1ccncc1 [ISONIAZID],MIC,[3],8 µg/mL
same,MIC,[4],4 µg/mL
same,MIC,[5],4 µg/mL
same,MIC,[6],2 µg/mL
same,MIC,[7],2 µg/mL
same,MIC,[8],8 µg/mL
same,MIC,[9],2 µg/mL
CC(=O)NC[C@H]1CN(c2ccc(N3CCOCC3)c(F)c2)C(=O)O1 [LINEZOLID],MIC,[3],0.25 µg/mL
same,MIC,[4],0.25 µg/mL
same,MIC,[5],0.25 µg/mL
same,MIC,[6],1 µg/mL
same,MIC,[7],0.25 µg/mL
same,MIC,[9],0.25 µg/mL
